Assay results: PMC5987058, “Therapeutic Potential of a Scorpion Venom-Derived Antimicrobial Peptide and Its Homologs Against Antibiotic-Resistant Gram-Positive Bacteria” (Frontiers in Microbiology, 2018)
Converted amounts (≈) assume the structure as drawn. Ends that are not written are not given here.

Experiments:
[1] = test system: Staphylococcus aureus AB94004; details: comparison values; ref Zeng et al., 2004, 2012; Cao et al., 2012a; cited from earlier work
From the text: (§1) Table 1 In Vitro antimicrobial activities of marcin-18 and its homologs compared with other peptides and antibiotics. | column: MIC (μM) / BmKn2; MIC (μM) / Amp; MIC (μM) / Kana

[2] = test system: Escherichia coli ATCC25922; details: comparison values; ref Zeng et al., 2004, 2012; Cao et al., 2012a; cited from earlier work
From the text: as §1

[3] = test system: Staphylococcus aureus AB94004; assay: MIC, broth microdilution; assay type: cell-based; details: legend of Figure 6
Method: The antimicrobial activity was determined via a broth microdilution assay according to the procedure recommended by the Clinical and Laboratory Standards Institute with some modifications ([Hou et al., 2011]; [Li et al., 2016]). Bacteria were cultured in Luria-Bertani (LB) broth to OD600 = 0.6 at 37°C, then diluted to 10^5–10^6 CFU/mL in LB medium. Peptides were serially double diluted to a gradient concentration range from 48.3 to 1.5 μM in physiological saline. Eighty microliters of the bacterial suspension and 20 μL of diluted peptide at varying concentrations were added to 96-well plates, and then incubated for 16–18 h at 37°C with continuous shaking at 250 rpm. The antimicrobial activity of ampicillin and kanamycin were also tested as positive controls. Experiments were performed in triplicate. The minimum inhibitory concentration (MIC) was determined as the lowest peptide concentration at which no bacterial growth was observed.

[4] = test system: Staphylococcus aureus ATCC25923; details: comparison values; ref Zeng et al., 2004, 2012; Cao et al., 2012a; cited from earlier work
From the text: Table 1 In Vitro antimicrobial activities of marcin-18 and its homologs compared with other peptides and antibiotics. | column: MIC (μM) / BmKn2; MIC (μM) / Kana

[5] = test system: Bacillus subtilis AB91021; details: comparison values; ref Zeng et al., 2004, 2012; Cao et al., 2012a; cited from earlier work
From the text: Table 1 In Vitro antimicrobial activities of marcin-18 and its homologs compared with other peptides and antibiotics. | column: MIC (μM) / BmKn2; MIC (μM) / BmKb1; MIC (μM) / Kana

S. aureus AB94004 = assay: SYTOX green fluorescence measurement (membrane integrity); assay type: cell-based, Staphylococcus aureus; details: positive control; 5 μM SYTOX green; n = 3
Method: S. aureus AB94004 were cultured to exponential phase (ca. 10^7 CFU/mL), centrifuged and suspended in physiological saline. Then the fluorescence dye SYTOX green (Invitrogen) was added at a final concentration of 5 μM. After incubation for 10 min, 50 μL bacterial culture and equal volume of peptides serially diluted in physiological saline at final concentrations of 1 × MIC, 2 × MIC, and 4 × MIC were added in a Greiner 96-well flat-bottom black plate. Physiological saline and MSI 78 were used as negative and positive controls. Fluorescence was measured over 30 min at the excitation and emission wavelengths of 488 and 525 nm, respectively.

Row | Compound | MIC [1] [µM] | MIC [2] [µM] | MIC of control substances [3] [µM] | MIC [4] [µM] | MIC [5] [µM] | SYTOX green fluorescence (S. aureus AB94004)
1 | CC1(C)S[C@@H]2[C@H](NC(=O)[C@H](N)c3ccccc3)C(=O)N2[C@H]1C(=O)O [Amp, ampicillin] | 67.3 (≈ 23.5 µg/mL) | 33.7 (≈ 11.8 µg/mL) | – | – | – | –
2 | CC[C@H](C)[C@H](NC(=O)CN)C(=O)NCC(=O)N[C@@H](C)C(=O)N[C@H](C(=O)N[C@@H](CC(C)C)C(=O)N[C@@H](CCCCN)C(=O)N[C@H](C(=O)N[C@@H](CC(C)C)C(=O)N[C@H](C(=O)N[C@H](C(=O)NCC(=O)N[C@@H](CC(C)C)C(=O)N1CCC[C@H]1C(=O)N[C@@H](C)C(=O)N[C@@H](CC(C)C)C(=O)N[C@H](C(=O)N[C@@H](CO)C(=O)N[C@@H](Cc1c[nH]c2ccccc12)C(=O)N[C@H](C(=O)N[C@@H](CCCCN)C(=O)N[C@@H](CCCNC(=N)N)C(=O)N[C@@H](CCCCN)C(=O)N[C@@H](CCCNC(=N)N)C(=O)N[C@@H](CCC(N)=O)C(=O)N[C@@H](CCC(N)=O)C(N)=O)[C@@H](C)CC)[C@@H](C)CC)[C@@H](C)O)[C@@H](C)O)C(C)C)C(C)C [melittin] | – | – | 2.2 | – | – | –
3 | NC[C@H]1O[C@H](O[C@H]2[C@H](O)[C@@H](O[C@H]3O[C@H](CO)[C@@H](O)[C@H](N)[C@H]3O)[C@H](N)C[C@@H]2N)[C@H](O)[C@@H](O)[C@@H]1O [Kana, kanamycin] | 5.4 (≈ 2.62 µg/mL) | 21.5 (≈ 10.4 µg/mL) | 5.4 | 10.7 (≈ 5.18 µg/mL) | 42.9 (≈ 20.8 µg/mL) | –
4 | GIGKFLKKAKKFGKAFVKILKK-NH2 (C-terminus assumed) [MSI 78] | – | – | 2.5 | – | – | stable increase
